Experimental data published in ChEMBL document CHEMBL1146637, “Structure-activity relationship in the oxazolidinone-quinolone hybrid series: influence of the central spacer on the antibacterial activity and the mode of action” (Bioorg Med Chem Lett, 2003).
≈ marks a conversion by molar mass, not a printed value.

These compounds were tested on Escherichia coli (assay: In vitro antibacterial activity against Escherichia coli ATCC 25922 (Ecol) was determined).
Assay type: functional

Q: Which MIC does the source give for `CC(=O)NC[C@H]1CN(c2ccc(OCC3CCN(c4nc5c(cc4F)c(=O)c(C(=O)O)cn5C4CC4)CC3)c(F)c2)C(=O)O1` here?
A: The MIC was > 32 µg/mL.

Q: How did the MIC turn out when `CC(=O)NC[C@H]1CN(c2ccc(OC[C@H]3CCN(c4nc5c(cc4F)c(=O)c(C(=O)O)cn5C4CC4)C3)c(F)c2)C(=O)O1` was run?
A: Its MIC is 1 µg/mL (≈ 1.67 µM).

Q: For `CC(=O)NC[C@H]1CN(c2ccc(OC3CN(c4nc5c(cc4F)c(=O)c(C(=O)O)cn5C4CC4)C3)c(F)c2)C(=O)O1`, which MIC is on record?
A: The MIC was 1 µg/mL (≈ 1.76 µM).

Q: With `CC(=O)NC[C@H]1CN(c2ccc(OCCC3CCN(c4nc5c(cc4F)c(=O)c(C(=O)O)cn5C4CC4)CC3)c(F)c2)C(=O)O1` as the compound, how does the MIC read?
A: The MIC was > 32 µg/mL.

These compounds were tested on Staphylococcus aureus (assay: In vitro antibacterial activity against […] Staphylococcus aureus ATCC 29213 (Saul)).
Assay type: functional

Q: How did the MIC turn out when `CC(=O)NC[C@H]1CN(c2ccc(OCC3CCN(c4nc5c(cc4F)c(=O)c(C(=O)O)cn5C4CC4)CC3)c(F)c2)C(=O)O1` was run?
A: Its MIC is 0.125 µg/mL (≈ 0.204 µM).

Q: `CC(=O)NC[C@H]1CN(c2ccc(OC[C@H]3CCN(c4nc5c(cc4F)c(=O)c(C(=O)O)cn5C4CC4)C3)c(F)c2)C(=O)O1` was tested. Which MIC did it give?
A: Its MIC is 0.125 µg/mL (≈ 0.209 µM).

Q: For `CC(=O)NC[C@H]1CN(c2ccc(OC3CN(c4nc5c(cc4F)c(=O)c(C(=O)O)cn5C4CC4)C3)c(F)c2)C(=O)O1`, which MIC is on record?
A: The MIC was 0.25 µg/mL (≈ 0.439 µM).

Q: `CC(=O)NC[C@H]1CN(c2ccc(OCCC3CCN(c4nc5c(cc4F)c(=O)c(C(=O)O)cn5C4CC4)CC3)c(F)c2)C(=O)O1` was tested. Which MIC did it give?
A: The MIC was 0.125 µg/mL (≈ 0.2 µM).

The compounds below were run on Enterococcus faecalis (assay: In vitro antibacterial activity against Enterococcus faecalis ATCC 29212 (Efs) was determined).
Assay type: functional

Q: With `CC(=O)NC[C@H]1CN(c2ccc(OCC3CCN(c4nc5c(cc4F)c(=O)c(C(=O)O)cn5C4CC4)CC3)c(F)c2)C(=O)O1` as the compound, how does the MIC read?
A: The MIC was ≤ 0.06 µg/mL.

Q: How did the MIC turn out when `CC(=O)NC[C@H]1CN(c2ccc(OC[C@H]3CCN(c4nc5c(cc4F)c(=O)c(C(=O)O)cn5C4CC4)C3)c(F)c2)C(=O)O1` was run?
A: The MIC was 0.06 µg/mL (≈ 0.1 µM).

Q: For `CC(=O)NC[C@H]1CN(c2ccc(OC3CN(c4nc5c(cc4F)c(=O)c(C(=O)O)cn5C4CC4)C3)c(F)c2)C(=O)O1`, which MIC is on record?
A: The MIC was 0.5 µg/mL (≈ 0.878 µM).

Q: For `CC(=O)NC[C@H]1CN(c2ccc(OCCC3CCN(c4nc5c(cc4F)c(=O)c(C(=O)O)cn5C4CC4)CC3)c(F)c2)C(=O)O1`, which MIC is on record?
A: The MIC was 0.125 µg/mL (≈ 0.2 µM).

What follows are compounds tested on Staphylococcus aureus (assay: In vitro antibacterial activity against ciprofloxacin and methicillin resistant Staphylococcus aureus (Sau2CIP) was determined).
Assay type: functional

Q: Which MIC does the source give for `CC(=O)NC[C@H]1CN(c2ccc(OCC3CCN(c4nc5c(cc4F)c(=O)c(C(=O)O)cn5C4CC4)CC3)c(F)c2)C(=O)O1` here?
A: Its MIC is 0.125 µg/mL (≈ 0.204 µM).

Q: `CC(=O)NC[C@H]1CN(c2ccc(OC[C@H]3CCN(c4nc5c(cc4F)c(=O)c(C(=O)O)cn5C4CC4)C3)c(F)c2)C(=O)O1` was tested. Which MIC did it give?
A: Its MIC is 0.125 µg/mL (≈ 0.209 µM).

Q: `CC(=O)NC[C@H]1CN(c2ccc(OC3CN(c4nc5c(cc4F)c(=O)c(C(=O)O)cn5C4CC4)C3)c(F)c2)C(=O)O1` was tested. Which MIC did it give?
A: The MIC was 0.5 µg/mL (≈ 0.878 µM).

Q: Which MIC does the source give for `CC(=O)NC[C@H]1CN(c2ccc(OCCC3CCN(c4nc5c(cc4F)c(=O)c(C(=O)O)cn5C4CC4)CC3)c(F)c2)C(=O)O1` here?
A: The MIC was 0.125 µg/mL (≈ 0.2 µM).

What follows are compounds tested on Enterococcus faecium (assay: In vitro antibacterial activity against vancomycin and ciprofloxacin resistant Enterococcus faecium (Efm CIP) was determined).
Assay type: functional

Q: How did the MIC turn out when `CC(=O)NC[C@H]1CN(c2ccc(OCC3CCN(c4nc5c(cc4F)c(=O)c(C(=O)O)cn5C4CC4)CC3)c(F)c2)C(=O)O1` was run?
A: Its MIC is 0.125 µg/mL (≈ 0.204 µM).

Q: Which MIC does the source give for `CC(=O)NC[C@H]1CN(c2ccc(OC[C@H]3CCN(c4nc5c(cc4F)c(=O)c(C(=O)O)cn5C4CC4)C3)c(F)c2)C(=O)O1` here?
A: The MIC was 0.125 µg/mL (≈ 0.209 µM).

Q: Which MIC does the source give for `CC(=O)NC[C@H]1CN(c2ccc(OC3CN(c4nc5c(cc4F)c(=O)c(C(=O)O)cn5C4CC4)C3)c(F)c2)C(=O)O1` here?
A: The MIC was 2 µg/mL (≈ 3.51 µM).

Q: `CC(=O)NC[C@H]1CN(c2ccc(OCCC3CCN(c4nc5c(cc4F)c(=O)c(C(=O)O)cn5C4CC4)CC3)c(F)c2)C(=O)O1` was tested. Which MIC did it give?
A: Its MIC is 0.125 µg/mL (≈ 0.2 µM).

Each compound was assayed on Haemophilus influenzae (assay: In vitro antibacterial activity against Haemophilus influenzae 11 (Hin) was determined).
Assay type: functional

Q: `CC(=O)NC[C@H]1CN(c2ccc(OCC3CCN(c4nc5c(cc4F)c(=O)c(C(=O)O)cn5C4CC4)CC3)c(F)c2)C(=O)O1` was tested. Which MIC did it give?
A: Its MIC is 0.5 µg/mL (≈ 0.818 µM).

Q: For `CC(=O)NC[C@H]1CN(c2ccc(OC[C@H]3CCN(c4nc5c(cc4F)c(=O)c(C(=O)O)cn5C4CC4)C3)c(F)c2)C(=O)O1`, which MIC is on record?
A: Its MIC is 0.25 µg/mL (≈ 0.418 µM).

Q: With `CC(=O)NC[C@H]1CN(c2ccc(OC3CN(c4nc5c(cc4F)c(=O)c(C(=O)O)cn5C4CC4)C3)c(F)c2)C(=O)O1` as the compound, how does the MIC read?
A: Its MIC is 0.125 µg/mL (≈ 0.219 µM).

Q: With `CC(=O)NC[C@H]1CN(c2ccc(OCCC3CCN(c4nc5c(cc4F)c(=O)c(C(=O)O)cn5C4CC4)CC3)c(F)c2)C(=O)O1` as the compound, how does the MIC read?
A: The MIC was 2 µg/mL (≈ 3.2 µM).

Each compound was assayed on Escherichia coli (assay: In vitro antibacterial activity against Escherichia coli AS19 (Eco2), permeable mutant was determined).
Assay type: functional

Q: Which MIC does the source give for `CC(=O)NC[C@H]1CN(c2ccc(OCC3CCN(c4nc5c(cc4F)c(=O)c(C(=O)O)cn5C4CC4)CC3)c(F)c2)C(=O)O1` here?
A: The MIC was 0.125 µg/mL (≈ 0.204 µM).

Q: For `CC(=O)NC[C@H]1CN(c2ccc(OC[C@H]3CCN(c4nc5c(cc4F)c(=O)c(C(=O)O)cn5C4CC4)C3)c(F)c2)C(=O)O1`, which MIC is on record?
A: The MIC was ≤ 0.06 µg/mL.

Q: `CC(=O)NC[C@H]1CN(c2ccc(OC3CN(c4nc5c(cc4F)c(=O)c(C(=O)O)cn5C4CC4)C3)c(F)c2)C(=O)O1` was tested. Which MIC did it give?
A: Its MIC is ≤ 0.06 µg/mL.

Q: How did the MIC turn out when `CC(=O)NC[C@H]1CN(c2ccc(OCCC3CCN(c4nc5c(cc4F)c(=O)c(C(=O)O)cn5C4CC4)CC3)c(F)c2)C(=O)O1` was run?
A: The MIC was ≤ 0.06 µg/mL.

What follows are compounds tested on Staphylococcus aureus (assay: In vitro antibacterial activity against oxazolidinone Linezolid resistant Staphylococcus aureus (Sau3LZD) was determined).
Assay type: functional

Q: With `CC(=O)NC[C@H]1CN(c2ccc(OCC3CCN(c4nc5c(cc4F)c(=O)c(C(=O)O)cn5C4CC4)CC3)c(F)c2)C(=O)O1` as the compound, how does the MIC read?
A: Its MIC is 1 µg/mL (≈ 1.64 µM).

Q: With `CC(=O)NC[C@H]1CN(c2ccc(OC[C@H]3CCN(c4nc5c(cc4F)c(=O)c(C(=O)O)cn5C4CC4)C3)c(F)c2)C(=O)O1` as the compound, how does the MIC read?
A: Its MIC is 0.125 µg/mL (≈ 0.209 µM).

Q: For `CC(=O)NC[C@H]1CN(c2ccc(OC3CN(c4nc5c(cc4F)c(=O)c(C(=O)O)cn5C4CC4)C3)c(F)c2)C(=O)O1`, which MIC is on record?
A: Its MIC is ≤ 0.06 µg/mL.

Q: With `CC(=O)NC[C@H]1CN(c2ccc(OCCC3CCN(c4nc5c(cc4F)c(=O)c(C(=O)O)cn5C4CC4)CC3)c(F)c2)C(=O)O1` as the compound, how does the MIC read?
A: Its MIC is 1 µg/mL (≈ 1.6 µM).
